The experiment addresses T1, human platelet phospholipase A2 (Homo sapiens, UniProt P14555).
T1 construct: a preparation of human platelet phospholipase A2; from tissue; host or cells: human platelets
T1 sequence (P14555 21-144): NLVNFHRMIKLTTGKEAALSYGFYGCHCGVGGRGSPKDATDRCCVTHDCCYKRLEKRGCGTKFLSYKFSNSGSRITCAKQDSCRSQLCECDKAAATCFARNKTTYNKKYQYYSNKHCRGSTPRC
The experiment in a line: Inhibition of human platelet phospholipase A2 (14C-oleate E. coli substrate). It counts as biochemical. As to conditions: for inhibition at 50 µM: read-out: Inhibition of PLA2, % Inhibition @ 50 μM; for inhibition at 10 µM: @ 10 μM (values marked *), read-out: Inhibition of PLA2, % Inhibition @ *10 μM; for IC50: pH 7.0, 37°, 60 min incubation, read-out: Inhibition of PLA2, IC50. On the procedure: The activity of the compounds of the invention against phospholipase A2 is determined using a preparation of human platelet phospholipase A2 with a specific activity of 180 nmol/min/mg as the enzyme source. Polypropylene 15-ml test tubes are utilized as the reaction vessels. All drug samples are run in duplicate, with "blank" and "control" (no test compound) groups run in triplicate. […] Test compounds are dissolved in DMSO, and diluted to a projected final concentration of either 50 or 10 μM in 550 μl HEPES buffer at pH 7.0. A 1:7 dilution of human platelet PLA2 in HEPES buffer (5 μl) is added to each test tube, followed by gentle vortexing for 3 seconds. The reaction tubes containing drug, buffer, and enzyme are preincubated for 15 min at 37°, followed by the addition of 25 μl of ^14 C-oleate E. coli substrate. Details regarding this substrate may be found in a publication by S. Ghosh and R. Franson, Biochem. Cell. Biol., 70, 43 (1992), and references therein.
The tubes are immediately vortexed at moderate speed for 3 sec, followed by a 60 min incubation at 37° in a shaking water bath. The reaction is stopped by the addition of 3 ml of a 1:2 chloroform-methanol mixture. Additional water (1.5 ml) and chloroform (1.0 ml) are added, followed by vortexing. The lower phase is removed with a polypropylene transfer pipette, and transferred to a 13×100 mm polypropylene test tube. The organic solvent is evaporated with a stream of nitrogen, the residue is redissolved in 30 μl of a 9:1 chloroform-methanol mixture, and the solution is spotted on a channeled polyester-backed silica gel TLC plate, such as those available under the trade name PE SIL G available from Whatman Inc, Clifton, N.J.
The plate is developed with an 80:20:1 mixture of petroleum ether-diethyl ether-acetic acid. […] The plate is scored above the origin, cut along the score with scissors, and the reactant (origin) and product portions of each channel are put into separate scintillation vials. To each vial is added a scintillation cocktail (15 ml), preferably that sold under the trademark ECOLUME by ICN Biomedicals, Irvine Calif. The vials are shaken vigorously for 5 sec, and the radioactive ^14 C in each vial is measured with a scintillation counter, which provides the counts-per-minute (cpm) for each sample. The obtained cpm values are corrected for the "blank" values.
The percentage of phospholipid hydrolyzed is calculated by the formula:
Phospholipid converted=100×cpm products / (cpm products+cpm
The inhibition of phospholipase A2 by the test compounds is expressed as a percent inhibition relative to the control group:
% Inhibition=[…]

Each structure is given as a SMILES string.

One may read the inhibition as the change of the read-out against control, counted positive when it falls. Take `O=C1C=C(c2ccc(CC(O)COc3ccc4ccccc4c3)cc2)C(O)O1` (racemic) [Example 51, 5-Hydroxy-4-(4-(2-hydroxy-3-(2-naphthyloxy)propyl)phenyl)-2(5H)-furanone]: the inhibition at 50 µM was 30%.
The same measure, in the same setting: the value for `O=C1C=C(c2ccc(/C=C\c3ccccc3)cc2)C(O)O1` (single isomer, unassigned) [Example 33, (Z)-5-Hydroxy-4-(4-(2-phenylethenyl)phenyl)-2(5H)-furanone] was 23%.
As usually defined, the IC50 is the concentration at which inhibition is half-maximal. Turning to `CCCCCCCCOc1ccc(C2=CC(=O)OC2O)c(Cl)c1` (stereo not drawn) [Example 2, 5-Hydroxy-4-(2-chloro-4-octyloxyphenyl)-2(5H)furanone], the inhibition at 10 µM worked out at 69% and the IC50 was found to be 7.5 µM.
With `CCCCCCCCOc1cccc(C2=CC(=O)OC2O)c1` (stereo not drawn) [Example 3, 5-Hydroxy-4-(3-octyloxyphenyl)-2(5H)furanone], the inhibition at 50 µM came to 39%.
With `CCCCCCCCOc1ccc(C2=CC(=O)OC2O)cc1Cl` (stereo not drawn) [Example 4, 5-Hydroxy-4-(3-chloro-4-octyloxyphenyl)-2(5H)furanone], the inhibition at 10 µM stood at 71% and the IC50 turned out to be 5.4 µM.
For the molecule `CCCCCCCCOc1ccc(C2=CC(=O)OC2O)c(OC)c1` (stereo not drawn) [Example 5, 5-Hydroxy-4-(2-methoxy-4-octyloxyphenyl)-2(5H)furanone], the inhibition at 10 µM was 58%.
Still for that read-out and setting: the value for `CCCCCCCCOc1ccc(C2=CC(=O)OC2O)cc1OC` (stereo not drawn) [Example 6, 5-Hydroxy-4-(3-methoxy-4-octyloxyphenyl)-2(5H)furanone] was 27%.
Regarding `CCCCCCCCOc1ccc(C2=CC(=O)OC2O)cc1[N+](=O)[O-]` (stereo not drawn) [Example 7, 5-Hydroxy-4-(3-nitro-4-octyloxyphenyl)-2(5H)furanone], the inhibition at 10 µM turned out to be 67% and the half-maximal inhibitory concentration (IC50) was determined as 9.4 µM.
For `CCCCCCCCOc1ccccc1C1=CC(=O)OC1O` (stereo not drawn) [Example 8, 5-Hydroxy-4-(2-octyloxyphenyl)-2(5H)furanone], the inhibition at 10 µM worked out at 21%.
As for `CCCCCCCCOc1ccc(C2=CC(=O)OC2O)cc1NC(C)=O` (stereo not drawn) [Example 9, 5-Hydroxy-4-(3-acetamido-4-octyloxyphenyl)-2(5H)furanone], the inhibition at 10 µM turned out to be 7%.
Take `O=C1C=C(c2ccc(OCCCc3ccccc3)cc2)C(O)O1` (stereo not drawn) [Example 10, 5-Hydroxy-4-[4-(3-phenylpropyloxy)phenyl]-2(5H)furanone]: the inhibition at 50 µM is 17%.
Regarding `C=CCOc1cccc(C2=CC(=O)OC2O)c1` (stereo not drawn) [Example 11, 5-Hydroxy-4-[(3-allyloxy)phenyl]-2(5H)furanone], the inhibition at 50 µM amounted to 0%.
Same read-out and setting: with `CCCCCCCC(=O)Nc1cccc(C2=CC(=O)OC2O)c1` (stereo not drawn) [Example 20, 5-Hydroxy-4-(3-(1-oxooctylamino)phenyl)-2(5H)furanone] the figure was 0%; with `CCCCCCCC(=O)Nc1ccc(C2=CC(=O)OC2O)cc1` (stereo not drawn) [Example 21, 5-Hydroxy-4-(4-(1-oxooctylamino)phenyl)-2(5H)furanone], 0%.
Turning to `CCCCCCCCS(=O)(=O)c1ccc(C2=CC(=O)OC2O)cc1` (stereo not drawn) [Example 22, 5-Hydroxy-4-(4-octylsulfonyl)phenyl-2(5H)furanone], the inhibition at 10 µM came out at 49%.
`CCCCSc1ccc(C2=CC(=O)OC2O)cc1` (stereo not drawn) [Example 24, 5-Hydroxy-4-(4-(butylthio)phenyl)-2(5H)furanone]: the inhibition at 50 µM came to 0%.
`CCCCCCCCN(C(C)=O)c1ccc(C2=CC(=O)OC2O)cc1` (stereo not drawn) [Example 25, 5-Hydroxy-4-(4-(N-acetyl-N-octylamino)phenyl)-2(5H)furanone]: the inhibition at 10 µM is 40%.
The same measure, in the same setting: the value for `CC1=C(C/C=C(\C)CCCOc2ccc(C3=CC(=O)OC3O)cc2)C(C)(C)CCC1` (stereo not drawn) [Example 26, (E)-5-Hydroxy-4-(4-(4-methyl-6-(2,6,6-trimethyl-1-cyclohexen-1-yl)-4-hexenyloxy)phenyl)-2(5H)-furanone] was 92%.
As to `O=C1C=C(c2ccc(C(=O)c3ccc4ccccc4c3)cc2)C(O)O1` (stereo not drawn) [Example 29, 5-Hydroxy-4-(4-(2-naphthoyl)phenyl)-2(5H)-furanone], the IC50 stood at 50 µM and the inhibition at 50 µM stood at 59%.
Consider `O=C1C=C(c2ccc(C(=O)c3ccccc3F)cc2)C(O)O1` (stereo not drawn) [Example 31, 5-Hydroxy-4-(4-(2-fluorobenzoyl)phenyl)-2(5H)-furanone], for which the inhibition at 50 µM is 6%.
Still for that read-out and setting: with `CCCCCCCC(=O)c1ccc(C2=CC(=O)OC2O)cc1` (stereo not drawn) [Example 32, 5-Hydroxy-4-(4-octanoylphenyl)-2(5H)-furanone] the figure was 55%; with `CCCCCCCCNS(=O)(=O)c1ccc(C2=CC(=O)OC2O)cc1` (stereo not drawn) [Example 45, 5-Hydroxy-4-(4-(octylaminosulfonyl)phenyl)-2(5H)-furanone], 13%; with `O=C1C=C(c2ccc(OS(=O)(=O)C(F)(F)F)cc2)C(O)O1` (stereo not drawn) [Example 46, 5-Hydroxy-4-(4-(trifluoromethanesulfonoxy)phenyl)-2(5H)-furanone], 0%.
In the case of `CC(C)c1cc(C2=CC(=O)OC2O)cc(C(C)C)c1O` (stereo not drawn) [Example 47, 5-Hydroxy-4-(3,5-bis(1-methylethyl)-4-hydroxyphenyl)-2(5H)-furanone], the inhibition at 10 µM stood at 2%.
In the case of `COc1ccc(CCNC(=O)c2ccc(C3=CC(=O)OC3O)cc2)cc1OC` (stereo not drawn) [Example 48, 5-Hydroxy-4-(4-((2-(3,4-dimethoxyphenyl)ethyl)aminocarbonyl)phenyl)-2(5H)-furanone], the inhibition at 50 µM was determined as 0%.
The same measure, in the same setting: the value for `O=C1C=C(c2ccc(Cc3ccccc3)cc2)C(O)O1` (stereo not drawn) [Example 49, 5-Hydroxy-4-(4-(phenylmethyl)phenyl)-2(5H)-furanone] was 5%.
Consider `O=C1C=C(c2ccc(Oc3ccc4ccccc4c3)cc2)C(O)O1` (stereo not drawn) [Example 50, 5-Hydroxy-4-(4-(2-naphthyloxy)phenyl)-2(5H)-furanone], for which the IC50 stood at 50 µM and the inhibition at 50 µM was found to be 52%.
Taken in the same sequence, the figures for `O=C1C=C(c2ccc(COc3ccc4ccccc4c3)cc2)C(O)O1` (stereo not drawn) [Example 52, 5-Hydroxy-4-(4-(2-naphthyloxymethyl)phenyl)-2(5H)-furanone] were 50 µM and 51%.
Taken in the same sequence, the figures for `CC(C)(C)C#Cc1ccc(C2=CC(=O)OC2O)cc1` (stereo not drawn) [Example 53, 5-Hydroxy-4-(4-(3,3-dimethyl-1-butynyl)phenyl)-2(5H)-furanone] were 42 µM and 53%.
`O=C1C=C(c2ccc(C#Cc3ccc4ccccc4c3)cc2)C(O)O1` (stereo not drawn) [Example 56, 5-Hydroxy-4-(4-(2-(2-naphthyl)ethynyl)phenyl)-2(5H)-furanone]: the inhibition at 50 µM came to 59%.
Regarding `O=C1C=C(c2ccc(C#Cc3cccc4ccccc34)cc2)C(O)O1` (stereo not drawn) [Example 57, 5-Hydroxy-4-(4-(2-(1-naphthyl)ethynyl)phenyl)-2(5H)-furanone], the IC50 was determined as 8.4 µM and the inhibition at 50 µM was determined as 69%.
`O=C1C=C(c2ccc(C#Cc3ccc(C(F)(F)F)cc3)cc2)C(O)O1` (stereo not drawn) [Example 58, 5-Hydroxy-4-(4-(2-(4-(trifluoromethyl)phenyl)ethynyl)phenyl)-2(5H)-furanone]: the inhibition at 10 µM was 24%.
The same measure, in the same setting: with `O=C1C=C(c2ccc(C#Cc3cccc([N+](=O)[O-])c3)cc2)C(O)O1` (stereo not drawn) [Example 59, 5-Hydroxy-4-(4-(2-(3-nitrophenyl)ethynyl)phenyl)-2(5H)-furanone] the figure was 6%; with `O=C1C=C(c2ccc(C#Cc3ccc([N+](=O)[O-])cc3)cc2)C(O)O1` (stereo not drawn) [Example 60, 5-Hydroxy-4-(4-(2-(4-nitrophenyl)ethynyl)phenyl)-2(5H)-furanone], 11%.
Turning to `COc1ccc(C#Cc2ccc(C3=CC(=O)OC3O)cc2)cc1` (stereo not drawn) [Example 61, 5-Hydroxy-4-(4-(2-(4-methoxyphenyl)ethynyl)phenyl)-2(5H)-furanone], the inhibition at 50 µM turned out to be 33%.
For `O=C1C=C(c2ccc(C#Cc3cc4ccccc4s3)cc2)C(O)O1` (stereo not drawn) [Example 62], the inhibition at 10 µM worked out at 33%.
Same read-out and setting: the value for `O=C1C=C(c2cccc(C#Cc3ccccc3)c2)C(O)O1` (stereo not drawn) [Example 63, 5-Hydroxy-4-(3-(2-phenylethynyl)phenyl)-2(5H)-furanone] was 45%.
